Experimental data taken from patent publication US7524860B2, “Antibacterial agents” (Pfizer Inc., priority 2004, dated 2009).
Values after ≈ are worked out from the molar mass of the structure shown. Read-outs that look alike come from different tables or passages of the source.

System: Neisseria gonorrhoeae, GC525 (NG-2888)
Test: in-vitro antibacterial activity, microbroth dilution MIC susceptibility testing
Type: cell-based
Set-up: unit: ug/mL
Details: microbroth dilution in gonococcal broth, 20-24 hours at 35 C, lowest concentration preventing visible growth
Protocol: The in-vitro antibacterial activity of selected compounds was determined against a stain of Neisseria gonorrhoeae, GC525 (NG-2888), which is described by Rouquette-Loughlin et al, in Journal of Bacteriology, February 2003, p. 1101-1106, at p. 1103. In general, minimum inhibitory concentration (MIC) susceptibility testing followed procedures recommended by the National Committee for Clinical Laboratory Standards (NCCLS^1-2) or followed the descriptions described below:
Neisseria gonorrhoeae strains were grown on Chocolate Agar II plates (BBL—Becton Dickinson Microbiology Systems, Cockeysville, Md.) and incubated at 35° C. in a humidified 5% CO2 incubator (Form a Scientific, Marietta Ohio). For microbroth dilution MIC testing, N. gonorrhoeae were tested in gonococcal broth (GCB):
Gram stains were also utilized. Permanent Stock Culture Collection
Bacterial stock cultures are stored as frozen suspensions at −70 C. N. gonorrhoeae cultures are suspended in inactivated Horse Serum (Colorado Serum Company, Denver, Colo.) containing 7.5% glucose prior to snap freezing in a dry ice/ethanol bath.
Preparation of Standardized Test Inocula and Plate Inoculation
Frozen stock cultures were used as the initial source of organisms for performing microbroth dilution MIC testing. Stock cultures were passed on their respective growth medium at least one growth cycle (18-24 hours) prior to their use. Bacterial culture suspensions were prepared directly from Chocolate Agar II plates into 10 mL cation-adjusted Mueller-Hinton Broth (CAMHB, BBL, # BB215069). Before use, cultures were adjusted to an optical density value of 1.6-2 on a Perkin-Elmer Lambda EZ150 Spectrophotometer (Wellesley, Mass.) set at a wavelength of 600 nm. Random cultures were plated for validation of actual colony counts. The adjusted cultures were diluted 400-fold (0.25 mL inoculum+100 mL GCB) into gonococcal broth producing a starting inoculum of approximately 5×10^5 cfu/mL. These cultures were inoculated into test plates (100 uL/well) using a Biomek® FX workstation (Beckman Coulter Inc., Fullerton, Calif.). The inoculated plates were placed in stacks of no more than 4 and covered with an empty plate. Plates were incubated for 20-24 hours at 35 C in a humidified CO2 incubator.
Test Compound (“Drug”) Preparation
Drug stock solutions (2 mg/mL in DMSO) were prepared on the day of testing. Drugs were weight corrected for assay content where necessary.
Drug Dilution Tray Preparation
Microbroth dilution stock plates were prepared in two dilution series, 64-0.06 ug drug/mL and 1-0.001 ug drug/mL. For the high concentration series, 200 uL of stock solution (2 mg/mL) was added to duplicate rows of a 96-well plate. This was used as the first well in the dilution series. Serial two-fold decremental dilutions were made using a BioMek FX robot (Beckman Coulter Inc., Fullerton, Calif.) with 10 of the remaining 11 wells, each of which contained 100 uL of the appropriate solvent/diluent. Row 12 contained solvent/diluent only and served as the control. For tube one of the low concentration series, 200 uL of a 31.25 ug/mL stock was added to duplicate rows of a 96-well plate. Serial two-fold dilutions were made as described above.
Daughter plates were spotted (3.2 uL/well) from the stock plates listed above using the BioMek FX robot and were inoculated with organism (100 uL/well) as described previously.
After incubation, the degree of growth in each well was read visually with the aid of a Test Reading Mirror (Dynatech Lab 220-16, Dynex Technologies, Chantilly, Va.). 96-well test plates are read in a darkened room with a single light shining from above. The MIC is the lowest concentration of drug that prevents macroscopically visible growth under the conditions of the test. […] If MIC values in duplicate tests differ by 1 well (two-fold), the […] value is reported. If duplicate tests vary by 2 dilutions (four-fold), the middle value is reported.

[1] = Neisseria gonorrhoeae, read-out: MIC

SMILES | MIC [1] [µg/mL] | MIC [µg/mL]
CCNC(=O)Nc1nc2cc(-c3ccccc3)cc(C(=O)NCC)n2n1 [Example 71, 2-(3-Ethyl-ureido)-7-phenyl-[1,2,4]triazolo[1,5-a]pyridine-5-carboxylic acid ethylamide] | 4 (≈ 11.4 µM) | 
CCNC(=O)Nc1nc2cc(-c3ccccc3F)cc(C(=O)NCC)n2n1 [Example 72, 2-(3-Ethyl-ureido)-7-(2-fluoro-phenyl)-[1,2,4]triazolo[1,5-a]pyridine-5-carboxylic acid ethylamide] | 4 (≈ 10.8 µM) | 
CCNC(=O)Nc1nc2cc(-c3ccccc3C)cc(C(=O)NCC)n2n1 [Example 73, 2-(3-Ethyl-ureido)-7-o-tolyl-[1,2,4]triazolo[1,5-a]pyridine-5-carboxylic acid ethylamide] | 16 (≈ 43.7 µM) | 
CCNC(=O)Nc1nc2cc(-c3cccc4ncccc34)cc(C(=O)NCC)n2n1 [Example 78, 2-(3-Ethyl-ureido)-7-quinolin-5-yl-[1,2,4]triazolo[1,5-a]pyridine-5-carboxylic acid ethylamide] | 8 (≈ 19.8 µM) | 
CCNC(=O)Nc1nc2cc(-c3ccc(OC(C)C)cc3)cc(C(=O)NCC)n2n1 [Example 80, 2-(3-Ethyl-ureido)-7-(4-isopropoxy-phenyl)-[1,2,4]triazolo[1,5-a]pyridine-5-carboxylic acid ethylamide] | > 64 | 
CCNC(=O)Nc1nc2cc(-c3cccc(C#N)c3)cc(C(=O)NCC)n2n1 [Example 81, 7-(3-Cyano-phenyl)-2-(3-ethyl-ureido)-[1,2,4]triazolo[1,5-a]pyridine-5-carboxylic acid ethylamide] | 2 (≈ 5.3 µM) | 
CCNC(=O)Nc1nc2cc(-c3ccccc3C(F)(F)F)cc(C(=O)NCC)n2n1 [Example 82, 2-(3-Ethyl-ureido)-7-(2-trifluoromethyl-phenyl)-[1,2,4]triazolo[1,5-a]pyridine-5-carboxylic acid ethylamide] | > 64 | 
CCNC(=O)Nc1nc2cc(-c3ccncc3Cl)cc(C(=O)NCC)n2n1 [Example 95, 7-(3-Chloro-pyridin-4-yl)-2-(3-ethyl-ureido)-[1,2,4]triazolo[1,5-a]pyridine-5-carboxylic acid ethylamide] | 32 (≈ 82.5 µM) | 
CCNC(=O)Nc1nc2cc(-c3ccc(OC)nc3)cc(C(=O)NCC)n2n1 [Example 96, 2-(3-Ethyl-ureido)-7-(6-methoxy-pyridin-3-yl)-[1,2,4]triazolo[1,5-a]pyridine-5-carboxylic acidethylamide] | 2 (≈ 5.22 µM) | 
CCNC(=O)Nc1nc2cc(-c3cnc(OC)nc3OC)cc(C(=O)NCC)n2n1 [Example 98, 7-(2,4-Dimethoxy-pyrimidin-5-yl)-2-(3-ethyl-ureido)-[1,2,4]triazolo[1,5-a]pyridine-5-carboxylic acid ethylamide] | 2 (≈ 4.83 µM) | 
CCNC(=O)Nc1nc2cc(-c3cccc(C(F)(F)F)c3)cc(C(=O)NCC)n2n1 [Example 99, 2-(3-Ethyl-ureido)-7-(3-trifluoromethyl-phenyl)-[1,2,4]triazolo[1,5-a]pyridine-5-carboxylic acid ethylamide] | 8 (≈ 19 µM) | 
CCNC(=O)Nc1nc2cc(-c3ccc(OC)cc3OC)cc(C(=O)NCC)n2n1 [Example 102, 7-(2,4-Dimethoxy-phenyl)-2-(3-ethyl-ureido)-[1,2,4]triazolo[1,5-a]pyridine-5-carboxylic acid ethylamide] | > 64 | 
CCNC(=O)Nc1nc2cc(-c3cc(C)c(OC)c(C)c3)cc(C(=O)NCC)n2n1 [Example 103, 2-(3-Ethyl-ureido)-7-(4-methoxy-3,5-dimethyl-phenyl)-[1,2,4]triazolo[1,5-a]pyridine-5-carboxylic acid ethylamide] | > 64 | 

More lines, now with the values ahead:

MIC [1] [µg/mL] | MIC [µg/mL] | SMILES
2 (≈ 5.27 µM) |  | CCNC(=O)Nc1nc2cc(-c3cccnc3)cc(C(=O)NC3CCC3)n2n1 [Example 75, 2-(3-Ethyl-ureido)-7-pyridin-3-yl-[1,2,4]triazolo[1,5-a]pyridine-5-carboxylic acid cyclobutylamide]
8 (≈ 18.4 µM) |  | CCNC(=O)Nc1nc2cc(-c3cccnc3)cc(C(=O)N(C)Cc3cc(C)no3)n2n1 [Example 76, 2-(3-Ethyl-ureido)-7-pyridin-3-yl-[1,2,4]triazolo[1,5-a]pyridine-5-carboxylic acidmethyl-(3-methyl-isoxazol-5-yl-methyl)-amide]
1 (≈ 2.54 µM) |  | CCNC(=O)Nc1nc2cc(-c3cccnc3)cc(C(=O)N3CCCC3C)n2n1 (centres unmarked) [Example 77, 1-Ethyl-3-[5-(2-methyl-pyrrolidine-1-carbonyl)-7-pyridin-3-yl-[1,2,4]triazolo[1,5-a]pyridin-2-yl]-urea]
16 (≈ 36 µM) |  | CCNC(=O)Nc1nc2cc(-c3cccnc3)cc(C(=O)N(C)C(C)c3ccncc3)n2n1 (centres unmarked) [Example 86, 2-(3-Ethyl-ureido)-7-pyridin-3-yl-[1,2,4]triazolo[1,5-a]pyridine-5-carboxylic acid methyl-(1-pyridin-4-yl-ethyl)-amide]
8 (≈ 16.5 µM) |  | CCNC(=O)Nc1nc2cc(-c3cccnc3)cc(C(=O)NCc3cnccc3C(F)(F)F)n2n1 [Example 87, 2-(3-Ethyl-ureido)-7-pyridin-3-yl-[1,2,4]triazolo[1,5-a]pyridine-5-carboxylic acid(4-trifluoromethyl-pyridin-3-ylmethyl)-amide]
8 (≈ 18 µM) |  | CCNC(=O)Nc1nc2cc(-c3cccnc3)cc(C(=O)N(CC)Cc3ccncc3)n2n1 [Example 88, 2-(3-Ethyl-ureido)-7-pyridin-3-yl-[1,2,4]triazolo[1,5-a]pyridine-5-carboxylic acidethyl-pyridin-4-ylmethyl-amide]
8 (≈ 18 µM) |  | CCNC(=O)Nc1nc2cc(-c3cccnc3)cc(C(=O)N(C)Cc3ncccc3C)n2n1 [Example 89, 2-(3-Ethyl-ureido)-7-pyridin-3-yl-[1,2,4]triazolo[1,5-a]pyridine-5-carboxylic acid methyl-(3-methyl-pyridin-2-yl-methyl)-amide]
> 64 |  | CCNC(=O)Nc1nc2cc(-c3cccnc3)cc(C(=O)N(C)C(C)c3ccccn3)n2n1 (centres unmarked) [Example 90, 2-(3-Ethyl-ureido)-7-pyridin-3-yl-[1,2,4]triazolo[1,5-a]pyridine-5-carboxylic acidmethyl-(1-pyridin-2-yl-ethyl)-amide]
16 (≈ 38.4 µM) |  | CCNC(=O)Nc1nc2cc(-c3cccnc3)cc(C(=O)NCc3cccnc3)n2n1 [Example 91, 2-(3-Ethyl-ureido)-7-pyridin-3-yl-[1,2,4]triazolo[1,5-a]pyridine-5-carboxylic acid(pyridin-3-ylmethyl)-amide]
8 (≈ 16 µM) |  | CCNC(=O)Nc1nc2cc(-c3cccnc3)cc(C(=O)N(Cc3ccncc3)CC3CCCO3)n2n1 (centres unmarked) [Example 92, 2-(3-Ethyl-ureido)-7-pyridin-3-yl-[1,2,4]triazolo[1,5-a]pyridine-5-carboxylic acidpyridin-4-ylmethyl-(tetrahydro-furan-2-ylmethyl)-amide]
2 (≈ 4.65 µM) |  | CCNC(=O)Nc1nc2cc(-c3cccnc3)cc(C(=O)NC(C)c3ccncc3)n2n1 (centres unmarked) [Example 93, 2-(3-Ethyl-ureido)-7-pyridin-3-yl-[1,2,4]triazolo[1,5-a]pyridine-5-carboxylic acid (1-pyridin-4-yl-ethyl)-amide]
 | 64.0 (≈ 168 µM) | CCNC(=O)Nc1nc2cc(-c3cccnc3)cc(C(=O)N(CC)CC)n2n1 [Example 104, 2-(3-Ethyl-ureido)-7-pyridin-3-yl-[1,2,4]triazolo[1,5-a]pyridine-5-carboxylic acid diethylamide]
16 (≈ 40.4 µM) |  | CCNC(=O)Nc1nc2cc(-c3cccnc3)cc(C(=O)NCCN(C)C)n2n1 [Example 105, 2-(3-Ethyl-ureido)-7-pyridin-3-yl-[1,2,4]triazolo[1,5-a]pyridine-5-carboxylic acid (2-dimethylamino-ethyl)-amide]
